What was measured:
[1] = tested on: bedstraw; test: Test B pre/postemergence bedstraw; type: in vivo, Galium aparine
In short: (§1)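 Response is a visual 0-to-10 score relative to untreated plants, where 0 means no effect and 10 means complete control, taken twelve to sixteen days after application. Treatments went onto soil at planting and onto foliage of 1- to 4-leaf plants, using a surfactant-containing non-phytotoxic solvent.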

[2] = tested on: blackgrass; test: Test B pre/postemergence blackgrass; type: in vivo, Alopecurus myosuroides
In short: as §1

[3] = tested on: giant foxtail; test: Test B pre/postemergence giant foxtail; type: in vivo, Setaria faberii
In short: as §1

[4] = tested on: morningglory; test: Test B pre/postemergence morningglory; type: in vivo, Ipomoea hederacea
In short: as §1

[5] = tested on: pigweed; test: Test B pre/postemergence pigweed; type: in vivo, Amaranthus retroflexus
In short: as §1

[6] = tested on: rape; test: Test B pre/postemergence rape; type: in vivo, Brassica napus
In short: as §1

[7] = tested on: soybean; test: Test B pre/postemergence soybean; type: in vivo, Glycine max
In short: as §1

[8] = tested on: sugar beet; test: Test B pre/postemergence sugar beet; type: in vivo, Beta vulgaris
In short: as §1

[9] = tested on: velvetleaf; test: Test B pre/postemergence velvetleaf; type: in vivo, Abutilon theophrasti
In short: as §1

[10] = tested on: wheat; test: Test B pre/postemergence wheat; type: in vivo, Triticum aestivum
In short: as §1

[11] = tested on: wild oat; test: Test B pre/postemergence wild oat; type: in vivo, Avena fatua
In short: as §1

[12] = tested on: purple nutsedge; test: Test B pre/postemergence purple nutsedge; type: in vivo, Cyperus rotundus
In short: as §1

[13] = tested on: rice; test: Test B flood test rice; type: in vivo, Oryza sativa
In short: (§2)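 Each value is a visual injury score relative to controls, with 10 meaning complete control and 0 no effect. Evaluation took place twelve to sixteen days after the 2-leaf-stage plants were treated and kept in the greenhouse.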

[14] = tested on: smallflower flatsedge; test: Test B flood test smallflower flatsedge; type: in vivo, Cyperus difformis
In short: as §2

[15] = tested on: duck salad; test: Test B flood test duck salad; type: in vivo, Heteranthera limosa
In short: as §2

[16] = tested on: bamyardgrass; test: Test B flood test barnyardgrass; type: in vivo, Echinochloa crus-galli
In short: as §2

[17] = Preemergence, Rate 62 g/ha, scale of 0 to 10 where 0 is no effect and 10 is complete control
[18] = Preemergence, Rate 250 g/ha, scale of 0 to 10 where 0 is no effect and 10 is complete control
[19] = Preemergence, Rate 500 g/ha, scale of 0 to 10 where 0 is no effect and 10 is complete control
[20] = Rate 62 g/ha, Postemergence, scale of 0 to 10 where 0 is no effect and 10 is complete control
[21] = Rate 125 g/ha, Postemergence, scale 0 to 10
[22] = Rate 125 g/ha, Preemergence, scale of 0 to 10 where 0 is no effect and 10 is complete control
[23] = Rate 500 g/ha, Postemergence, scale 0 to 10
[24] = Rate 62 g/ha, headed Pre-emergence (flood test species), scale 0 to 10 (0 no effect, 10 complete control)
[25] = Rate 125 g/ha, Pre-emergence, flood test species, scale 0 to 10 where 0 is no effect and 10 is complete control
[26] = Rate 250 g/ha, Pre-emergence, flood-test species, scale 0 to 10, 0 is no effect, 10 is complete control
[27] = Rate 500 g/ha, Pre-emergence, flood test species, scale 0 to 10 (0 no effect, 10 complete control)

SMILES: COC(=O)Cn1c(=O)on(C(=O)N(c2ccc(F)cc2)C(C)C)c1=O [Compound 215]
- Bedstraw plant response rating [1, 17]: 0
- Bedstraw plant response rating [1, 18]: 0
- Plant response rating, Bedstraw [1, 19]: 0
- Bedstraw plant response rating [1, 20]: 0
- Bedstraw plant response rating [1, 21]: 0
- Bedstraw plant response rating [1, 22]: 0
- Plant response rating (0 to 10; 0 is no effect, 10 is complete control), Bedstraw ([1]; Rate 250 g/ha, Postemergence): 6
- Bedstraw plant response rating [1, 23]: 8
- Blackgrass plant response rating [2, 17]: 4
- Plant response rating, Blackgrass [2, 19]: 6
- Blackgrass plant response rating [2, 20]: 0
- Blackgrass plant response rating [2, 21]: 0
- Blackgrass plant response rating [2, 22]: 6
- Plant response rating (0 to 10; 0 is no effect, 10 is complete control), Blackgrass ([2]; Rate 250 g/ha, Postemergence): 4
- Blackgrass plant response rating [2, 23]: 5
- Giant foxtail plant response rating [3, 17]: 3
- Giant foxtail plant response rating [3, 18]: 3
- Plant response rating, Giant foxtail [3, 19]: 5
- Giant foxtail plant response rating [3, 20]: 0
- Giant foxtail plant response rating [3, 21]: 0
- Giant foxtail plant response rating [3, 22]: 3
- Plant response rating (0 to 10; 0 is no effect, 10 is complete control), Giant foxtail ([3]; Rate 250 g/ha, Postemergence): 3
- Giant foxtail plant response rating [3, 23]: 5
- Morningglory plant response rating [4, 17]: 0
- Morningglory plant response rating [4, 18]: 0
- Plant response rating, Morningglory [4, 19]: 0
- Morningglory plant response rating [4, 20]: 0
- Morningglory plant response rating [4, 21]: 2
- Morningglory plant response rating [4, 22]: 0
- Plant response rating (0 to 10; 0 is no effect, 10 is complete control), Morningglory ([4]; Rate 250 g/ha, Postemergence): 3
- Morningglory plant response rating [4, 23]: 3
- Redroot pigweed plant response rating [5, 17]: 4
- Redroot pigweed plant response rating [5, 18]: 5
- Plant response rating, Redroot pigweed [5, 19]: 6
- Redroot pigweed plant response rating [5, 20]: 0
- Redroot pigweed plant response rating [5, 21]: 0
- Redroot pigweed plant response rating [5, 22]: 4
- Plant response rating (0 to 10; 0 is no effect, 10 is complete control), Redroot pigweed ([5]; Rate 250 g/ha, Postemergence): 6
- Redroot pigweed plant response rating [5, 23]: 6
- Rape plant response rating [6, 17]: 0
- Rape plant response rating [6, 18]: 0
- Plant response rating, Rape [6, 19]: 2
- Rape plant response rating [6, 20]: 0
- Rape plant response rating [6, 21]: 0
- Rape plant response rating [6, 22]: 0
- Plant response rating (0 to 10; 0 is no effect, 10 is complete control), Rape ([6]; Rate 250 g/ha, Postemergence): 0
- Rape plant response rating [6, 23]: 0
- Soybean plant response rating [7, 17]: 0
- Soybean plant response rating [7, 18]: 0
- Plant response rating, Soybean [7, 19]: 0
- Soybean plant response rating [7, 20]: 0
- Soybean plant response rating [7, 21]: 1
- Soybean plant response rating [7, 22]: 0
- Plant response rating (0 to 10; 0 is no effect, 10 is complete control), Soybean ([7]; Rate 250 g/ha, Postemergence): 1
- Soybean plant response rating [7, 23]: 1
- Sugarbeets plant response rating [8, 17]: 0
- Sugarbeets plant response rating [8, 18]: 2
- Plant response rating, Sugarbeets [8, 19]: 7
- Sugarbeets plant response rating [8, 20]: 0
- Sugarbeets plant response rating [8, 21]: 0
- Sugarbeets plant response rating [8, 22]: 2
- Plant response rating (0 to 10; 0 is no effect, 10 is complete control), Sugarbeets ([8]; Rate 250 g/ha, Postemergence): 0
- Sugarbeets plant response rating [8, 23]: 0
- Velvetleaf plant response rating [9, 17]: 0
- Velvetleaf plant response rating [9, 18]: 0
- Plant response rating, Velvetleaf [9, 19]: 0
- Velvetleaf plant response rating [9, 20]: 0
- Velvetleaf plant response rating [9, 21]: 0
- Velvetleaf plant response rating [9, 22]: 0
- Plant response rating (0 to 10; 0 is no effect, 10 is complete control), Velvetleaf ([9]; Rate 250 g/ha, Postemergence): 0
- Wheat plant response rating [10, 17]: 0
- Wheat plant response rating [10, 18]: 0
- Plant response rating, Wheat [10, 19]: 0
- Wheat plant response rating [10, 20]: 3
- Wheat plant response rating [10, 21]: 3
- Wheat plant response rating [10, 22]: 0
- Plant response rating (0 to 10; 0 is no effect, 10 is complete control), Wheat ([10]; Rate 250 g/ha, Postemergence): 6
- Wild oats plant response rating [11, 17]: 0
- Wild oats plant response rating [11, 18]: 2
- Plant response rating, Wild oats [11, 19]: 2
- Wild oats plant response rating [11, 20]: 0
- Wild oats plant response rating [11, 21]: 0
- Wild oats plant response rating [11, 22]: 0
- Plant response rating (0 to 10; 0 is no effect, 10 is complete control), Wild oats ([11]; Rate 250 g/ha, Postemergence): 2
- Nutsedge plant response rating [12, 17]: 0
- Nutsedge plant response rating [12, 18]: 0
- Plant response rating, Nutsedge [12, 19]: 0
- Nutsedge plant response rating [12, 20]: 0
- Nutsedge plant response rating [12, 21]: 0
- Nutsedge plant response rating [12, 22]: 0
- Plant response rating (0 to 10; 0 is no effect, 10 is complete control), Nutsedge ([12]; Rate 250 g/ha, Postemergence): 0
- Nutsedge plant response rating [12, 23]: 0
- Rice plant response rating [13, 24]: 0
- Rice plant response rating [13, 25]: 0
- Rice plant response rating [13, 26]: 0
- Rice plant response rating [13, 27]: 0
- S. Flatsedge plant response rating [14, 24]: 0
- S. Flatsedge plant response rating [14, 25]: 0
- S. Flatsedge plant response rating [14, 26]: 0
- S. Flatsedge plant response rating [14, 27]: 0
- Ducksalad plant response rating [15, 24]: 0
- Ducksalad plant response rating [15, 25]: 0
- Ducksalad plant response rating [15, 26]: 0
- Ducksalad plant response rating [15, 27]: 0
- Barnyardgrass plant response rating [16, 24]: 0
- Barnyardgrass plant response rating [16, 25]: 0
- Barnyardgrass plant response rating [16, 26]: 0
- Barnyardgrass plant response rating [16, 27]: 0
